Consider 3 compounds from patent US11591326B2, “Inhibitors of protein arginine methyltransferase 5 (PRMT5), pharmaceutical products thereof, and methods thereof” (PHARMABLOCK SCIENCES (NANJING), INC., priority 2018, dated 2023).

The test system of one assay is Glioblastoma U-251 cell. The assay can be described thus: Cell proliferation inhibition, U-251 (CellTiter-Glo). Format: cell-based. Particulars: Homo sapiens, U-251, incubated for 12 days (read after 8 or 12 days). From the text: Materials and Cell Lines: Z-138, U251, and MIA PaCa2 cells were purchased from ATCC (American Type Culture Collection, Manassas, Va.) and Chinese Academy of Science (Shanghai, China). Iscove's Modified Dulbecco's Medium (IMDM), Dulbecco's Modified Eagle Medium (DMEM), penicillin-streptomycin, heat inactivated fetal bovine serum (FBS), and horse serum was purchased from ThermoFisher, Waltham, Mass., USA. Corning 96- and 384-well cell culture plates were purchased from ThermoFisher, Waltham, Mass., USA. Cell-Titer Glo® was purchased from Promega Corporation, Madison, Wis., USA.
In order to evaluate the inhibitory ability of compounds synthesized on the proliferation of the Glioblastoma U-251 cell, exponentially growing cells were seeded in the cell culture media of DMEM with 10% FBS and 1% penicillin-streptomycin at a concentration of 10000 cells/ml in a 384-well plate with 20 ul per well and incubated overnight at 37° C., 5% CO2 incubator. Compounds were prepared as 10-point, 3-fold serial dilutions in DMSO, beginning at 6 mM. 1 μl of DMSO solutions from the compound stock plates were added to 99 ul of cell culture media (final top concentration of compound in the assay was 30 uM and the final concentration of DMSO was 0.5%). 20 μL of compound solutions in media were added to each well of U-251 cell plates. After adding compound solutions, assay plates were incubated for 12 days at 37° C., 5% CO2. During this incubation period, cell culture media with freshly dissolved testing compounds was changed every 4 days. After removing old media from cell plates, 40 ul of media with testing compounds dissolved, which were prepared by adding 1 ul of compound DMSO serial solutions to 199 ul of cell media, were added to the assay plates with the same layout as they were initially prepared. After 8 or 12 days, cell viability was measured using the CellTiter-Glo assay kit from Promega (Madison, Wis., USA) by quantitating the ATP present in the cell cultures. 20 μL of CellTiter-Glo reagent was added to each well of the cell plates. Luminescence was read after 10 minute of incubation with the Envision multiple plate reader from PerkinElmer (Waltham, Mass., USA). The concentrations of compounds inhibiting cell viability by 50% (IC50 values) were determined using a sigmoidal dose-response model (variable slopes, four parameters) in Prism 7 (La Jolla, Calif., USA).
On the technique in general: In ATP-based viability assays light output follows the ATP content of the culture.

Assay [1] addresses Human recombinant PRMT5 in complex with human recombinant MEP50 (Homo sapiens (Human), UniProt O14744). The assay can be described thus: PRMT5/MEP50 AlphaLISA enzyme inhibitory assay. Format: biochemical. Particulars: PRMT5/MEP50 25 nM, SAM 10 μM, Biotin-H4 peptide 30 nM. The method, boiled down: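 Insect-cell-expressed PRMT5/MEP50 (25 nM) preincubated with SAM (10 μM), then 15 min with compound in pH 8.5 Tris buffer, 1% DMSO. Biotin-H4(1–21) peptide (30 nM) reaction ran 120 min at room temperature. H4R3 methylation detected by AlphaLISA; IC50 from four-parameter sigmoidal fit.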
A general note: In Alpha technology, singlet oxygen from a donor bead excites a nearby acceptor bead.

The next assay has as its system Z-138 tumor cells. The assay can be described thus: Mantle cell lymphoma (MCL) Z-138 xenograft efficacy study. In kind it is in vivo, CB-17 female SCID mice. Particulars: administered orally BID for 21 days. How it is done:
For the in vivo efficacy studies, CB-17 female SCID mice (19-21 g; 10-12 weeks) were purchased from Shanghai SLAC laboratory animal CO. LTD. Each mouse was inoculated subcutaneously at the right flank with Z-138 tumor cells (5×10^6 cells/mouse, 50% Matrigel) in 0.2 mL of a mixture of base media and Matrigel (RPMI:Matrigel, 1:1) for tumor development. The treatments were started when the mean tumor size reached 121.55 mm^3, which was 11 days after inoculation. Mice were assigned into groups using a randomized block design. Testing compounds or vehicle (5% DMSO+45% PEG400+50% H2O) was administered orally BID for 21 days. Body weights were measured three times per week for the whole duration of the study. Tumor size was measured at the same schedule in two dimensions using a caliper, and the volume was expressed in cubic millimeters. Animals were euthanized 6 h after the final dose on day 21, at which time tumors were collected for analysis.

The IC50 is the concentration at which inhibition is half-maximal.

Human recombinant PRMT5 in complex with human recombinant MEP50, sequence (O14744 whole entry): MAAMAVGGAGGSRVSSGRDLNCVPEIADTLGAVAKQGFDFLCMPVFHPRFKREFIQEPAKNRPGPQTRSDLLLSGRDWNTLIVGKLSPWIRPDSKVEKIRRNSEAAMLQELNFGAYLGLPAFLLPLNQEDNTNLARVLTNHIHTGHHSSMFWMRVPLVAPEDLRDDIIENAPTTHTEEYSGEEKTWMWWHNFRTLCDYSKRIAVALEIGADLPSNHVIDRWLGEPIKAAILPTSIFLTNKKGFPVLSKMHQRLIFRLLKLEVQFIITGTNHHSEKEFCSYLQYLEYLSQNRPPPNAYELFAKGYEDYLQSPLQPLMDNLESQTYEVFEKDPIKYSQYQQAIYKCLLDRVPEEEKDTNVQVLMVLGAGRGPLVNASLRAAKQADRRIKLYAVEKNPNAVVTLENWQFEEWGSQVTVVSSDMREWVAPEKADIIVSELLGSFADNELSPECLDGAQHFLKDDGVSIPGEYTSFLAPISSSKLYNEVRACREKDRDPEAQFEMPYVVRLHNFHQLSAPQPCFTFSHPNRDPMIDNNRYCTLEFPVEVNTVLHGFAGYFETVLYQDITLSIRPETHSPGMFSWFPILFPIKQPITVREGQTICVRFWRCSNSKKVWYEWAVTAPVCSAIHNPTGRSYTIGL
Human recombinant PRMT5 in complex with human recombinant MEP50, sequence (Q9BQA1 whole entry partner): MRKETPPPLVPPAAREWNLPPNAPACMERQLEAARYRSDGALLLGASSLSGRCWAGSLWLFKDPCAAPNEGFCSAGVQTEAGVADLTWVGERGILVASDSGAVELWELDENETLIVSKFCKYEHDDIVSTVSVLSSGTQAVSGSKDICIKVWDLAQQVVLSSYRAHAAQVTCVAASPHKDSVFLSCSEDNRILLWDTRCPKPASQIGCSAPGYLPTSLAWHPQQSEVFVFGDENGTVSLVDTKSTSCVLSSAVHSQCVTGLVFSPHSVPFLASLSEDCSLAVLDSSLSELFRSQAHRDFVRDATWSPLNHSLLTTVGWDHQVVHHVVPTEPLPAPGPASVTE

Turning to `CC(=O)N1CCC(Nc2ccc3c(c2)C(=O)N(C[C@H](O)CN2CCc4ccccc4C2)CCO3)CC1` [Compound 52a, (R)-7-((1-acetylpiperidin-4-yl)amino)-4-(3-(3,4-dihydroisoquinolin-2(1H)-yl)-2-hydroxypropyl)-3,4-dihydrobenzo[f][1,4]oxazepin-5(2H)-one], the values for the half-inhibitory concentration (IC50) (with Glioblastoma U-251 cell; in assay [1]) were 0.293 µM and 80 nM, respectively. Further, in the assay with Z-138 tumor cells, the “result in Z-138 xenograft efficacy studies (tumor volume change, FIG. 1)” value is on record as “promising result”.

Regarding `CC(=O)N1CCC(Nc2cc(C(=O)NC[C@H](O)CN3CCc4ccccc4C3)ncn2)CC1` [Compound C3, reference compound], in the assay with Glioblastoma U-251 cell, the IC50 is 0.17 µM.

On to `CC(=O)N1CCC(Nc2ccc3c(c2)C(=O)N(C[C@H](O)CN2CCc4ccccc4C2)CC3)CC1` [Compound 24a, (R)-7-((1-acetylpiperidin-4-yl)amino)-2-(3-(3,4-dihydroisoquinolin-2(1H)-yl)-2-hydroxypropyl)-3,4-dihydroisoquinolin-1(2H)-one], for which the IC50 in the assay on Glioblastoma U-251 cell worked out at 0.097 µM; in assay [1] it was 13 nM.
